The values that follow come from PubChem BioAssay AID256 (DTP/NCI, 2004).

The test system of this experiment is CD2F1 mice, L1210 leukemia ip, survival T/C. Nature of the experiment: NCI In Vivo Anticancer Drug Screen. Data for tumor model L1210 Leukemia (intraperitoneal) in CD2F1 (CDF1) mice. Particulars: higher = longer survival. The essentials:
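Vehicle-treated tumor-bearing mice served as controls (C) for compound-treated mice (T). Reported figure is T divided by C.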

The mark [1] stands for this setting: endpoint: mean survival time, dose: 100.0 mg/kg/injection, schedule: Q01DX001 (ip), vehicle: saline with Tween-80.
Where [2] appears, read: endpoint: mean survival time, dose: 400.0 mg/kg/injection, schedule: Q01DX001 (ip), vehicle: saline with Tween-80.
Setting [3] is: endpoint: mean survival time, dose: 200.0 mg/kg/injection, schedule: Q01DX001 (ip), vehicle: saline with Tween-80.
Where [4] appears, read: endpoint: mean survival time, dose: 25.0 mg/kg/injection, schedule: Q01DX009 (ip), vehicle: saline with Tween-80.
The mark [5] stands for this setting: endpoint: mean survival time, dose: 50.0 mg/kg/injection, schedule: Q01DX009 (ip), vehicle: saline with Tween-80.
[6] abbreviates: endpoint: mean survival time, dose: 100.0 mg/kg/injection, schedule: Q04DX003 (ip), vehicle: saline with Tween-80.
The mark [7] stands for this setting: endpoint: mean survival time, dose: 100.0 mg/kg/injection, schedule: Q01DX009 (ip), vehicle: saline with Tween-80.
Setting [8] is: endpoint: mean survival time, dose: 200.0 mg/kg/injection, schedule: Q01DX009 (ip), vehicle: saline with Tween-80.
Setting [9] is: endpoint: mean survival time, dose: 400.0 mg/kg/injection, schedule: Q01DX009 (ip), vehicle: saline with Tween-80.
[10] abbreviates: endpoint: mean survival time, dose: 100.0 mg/kg/injection, schedule: Q04DX002 (ip), vehicle: saline with Tween-80.
Setting [11] is: endpoint: mean survival time, dose: 200.0 mg/kg/injection, schedule: Q04DX002 (ip), vehicle: saline with Tween-80.
Where [12] appears, read: endpoint: mean survival time, dose: 200.0 mg/kg/injection, schedule: Q04DX003 (ip), vehicle: saline with Tween-80.
Setting [13] is: endpoint: mean survival time, dose: 400.0 mg/kg/injection, schedule: Q04DX003 (ip), vehicle: saline with Tween-80.

SMILES strings stand for the structures. Inconclusive results and toxic doses are left out.

For the compound `O=C(NCCCCCCNC(=O)N1CC1)N1CC1`, the T/C was 109 % of control (endpoint: mean survival time, dose: 0.4 mg/kg/injection, schedule: Q01DX001 (ip), vehicle: saline); 118 % of control (endpoint: mean survival time, dose: 0.8 mg/kg/injection, schedule: Q01DX001 (ip), vehicle: saline); 114 % of control (endpoint: mean survival time, dose: 1.7 mg/kg/injection, schedule: Q01DX001 (ip), vehicle: saline).

Regarding `CCN(CC)c1ccc(N=Cc2cc(=O)n(C)c3ccccc23)cc1`, the T/C is 102 % of control under setting [1] and 91 % of control under setting [2].

On to `SCc1nc2ccccc2[nH]1`, for which the T/C runs as follows: under setting [1], 96 % of control; under setting [3], 97 % of control.

Take `O=P(OCc1ccccc1)(N(CCCl)CCCl)N1CCOCC1` (stereo not drawn): the T/C by setting is: (endpoint: mean survival time, dose: 62.5 mg/kg/injection, schedule: Q01DX010 (ip), vehicle: saline) 103 % of control; (endpoint: mean survival time, dose: 125.0 mg/kg/injection, schedule: Q01DX010 (ip), vehicle: saline) 101 % of control; (endpoint: mean survival time, dose: 250.0 mg/kg/injection, schedule: Q01DX010 (ip), vehicle: saline) 104 % of control.

With `O/N=C/c1ccccn1`, the T/C (endpoint: mean survival time, dose: 75.0 mg/kg/injection, schedule: Q04DX003 (ip), vehicle: saline with Tween-80) is 96 % of control; the T/C (endpoint: mean survival time, dose: 150.0 mg/kg/injection, schedule: Q04DX003 (ip), vehicle: saline with Tween-80) was 104 % of control; the T/C (endpoint: mean survival time, dose: 300.0 mg/kg/injection, schedule: Q04DX003 (ip), vehicle: saline with Tween-80) is 98 % of control.

As for `OCC1OC(n2cc(I)c3c2ncn2ccnc32)C(O)C1O` (stereo not drawn), the T/C is 92 % of control (endpoint: mean survival time, dose: 1.56 mg/kg/injection, schedule: Q01DX005 (ip), vehicle: water); 92 % of control (endpoint: mean survival time, dose: 3.13 mg/kg/injection, schedule: Q01DX005 (ip), vehicle: water); 97 % of control (endpoint: mean survival time, dose: 6.25 mg/kg/injection, schedule: Q01DX005 (ip), vehicle: water); 104 % of control (endpoint: mean survival time, dose: 12.5 mg/kg/injection, schedule: Q01DX005 (ip), vehicle: water); 100 % of control (endpoint: mean survival time, dose: 25.0 mg/kg/injection, schedule: Q01DX005 (ip), vehicle: water).

Turning to `CC(=O)N(C)c1ccc(S(=O)(=O)Cl)cc1`, the T/C reads like this: under setting [1], 100 % of control; under setting [3], 105 % of control; under setting [2], 93 % of control.

Regarding `O=C1NC(=O)C2(CCN(Cc3ccccc3)CC2)C(=O)N1`, the T/C is 96 % of control (endpoint: mean survival time, dose: 75.0 mg/kg/injection, schedule: Q01DX001 (ip), vehicle: saline); 98 % of control (endpoint: mean survival time, dose: 150.0 mg/kg/injection, schedule: Q01DX001 (ip), vehicle: saline); 96 % of control (endpoint: mean survival time, dose: 300.0 mg/kg/injection, schedule: Q01DX001 (ip), vehicle: saline).

As to `C=Cc1ccc(NC(=O)CCn2cnc3c(N)ncnc32)cc1`, the T/C was 100 % of control (endpoint: mean survival time, dose: 12.5 mg/kg/injection, schedule: Q01DX005 (ip), vehicle: distilled water + Tween-80); 102 % of control (endpoint: mean survival time, dose: 25.0 mg/kg/injection, schedule: Q01DX005 (ip), vehicle: distilled water + Tween-80); 98 % of control (endpoint: mean survival time, dose: 50.0 mg/kg/injection, schedule: Q01DX005 (ip), vehicle: distilled water + Tween-80); 98 % of control (endpoint: mean survival time, dose: 100.0 mg/kg/injection, schedule: Q01DX005 (ip), vehicle: distilled water + Tween-80); 98 % of control (endpoint: mean survival time, dose: 200.0 mg/kg/injection, schedule: Q01DX005 (ip), vehicle: distilled water + Tween-80).

As to `CC(=O)OCC1OC(n2ccc(O)cc2=O)C(O)C1O` (stereo not drawn), the T/C reads like this: (endpoint: median survival time, dose: 44.0 mg/kg/injection, schedule: Q01DX009 (ip), vehicle: saline + alcohol) 160 % of control; (endpoint: median survival time, dose: 67.0 mg/kg/injection, schedule: Q01DX009 (ip), vehicle: saline + alcohol) 169 % of control; (endpoint: median survival time, dose: 100.0 mg/kg/injection, schedule: Q01DX009 (ip), vehicle: saline + alcohol) 172 % of control; (endpoint: median survival time, dose: 150.0 mg/kg/injection, schedule: Q01DX009 (ip), vehicle: saline + alcohol) 174 % of control.

Regarding `COc1ccc2c(c1)C/C(=N\O)C2=O`, the T/C is 93 % of control under setting [4]; 95 % of control (endpoint: mean survival time, dose: 25.0 mg/kg/injection, schedule: Q04DX003 (ip), vehicle: saline with Tween-80); 97 % of control under setting [5]; 93 % of control (endpoint: mean survival time, dose: 50.0 mg/kg/injection, schedule: Q04DX003 (ip), vehicle: saline with Tween-80); 91 % of control under setting [6].

Take `O=C(C1=CN(CCCO)CCC1)c1cc2ccccc2[nH]1`: the T/C is 94 % of control under setting [1], 94 % of control under setting [3] and 97 % of control under setting [2].

Regarding `O=C(Nc1cccc2ccccc12)N(c1ccccc1)c1ccccc1`, the T/C (endpoint: mean survival time, dose: 100.0 mg/kg/injection, schedule: Q01DX001 (ip), vehicle: saline) is 105 % of control; the T/C (endpoint: mean survival time, dose: 200.0 mg/kg/injection, schedule: Q01DX001 (ip), vehicle: saline) is 96 % of control; the T/C (endpoint: mean survival time, dose: 400.0 mg/kg/injection, schedule: Q01DX001 (ip), vehicle: saline) was 94 % of control.

Take `O=S1(=O)c2ccccc2Oc2ccccc21`: the T/C is 97 % of control under setting [7], 107 % of control under setting [8] and 95 % of control under setting [9].

Turning to `COc1ccc2c(c1)CCC1C2=CC2=NNC(=O)C2C1c1ccccc1` (stereo not drawn), the T/C runs as follows: under setting [10], 92 % of control; under setting [11], 92 % of control; (endpoint: mean survival time, dose: 400.0 mg/kg/injection, schedule: Q04DX002 (ip), vehicle: saline with Tween-80) 88 % of control.

In the case of `c1ccc([Si](c2ccccc2)(c2cccs2)c2cccs2)cc1`, the T/C reads like this: under setting [6], 102 % of control; under setting [12], 106 % of control; under setting [13], 114 % of control.

Take `[CH3][Sn]([CH3])([Br])[CH2]CC[CH2][Sn]([CH3])([CH3])[Br]`: the T/C is, setting by setting: (endpoint: mean survival time, dose: 0.02 mg/kg/injection, schedule: Q01DX009 (ip), vehicle: saline) 100 % of control; (endpoint: mean survival time, dose: 0.04 mg/kg/injection, schedule: Q01DX009 (ip), vehicle: saline) 104 % of control; (endpoint: mean survival time, dose: 0.08 mg/kg/injection, schedule: Q01DX009 (ip), vehicle: saline) 102 % of control; (endpoint: mean survival time, dose: 6.25 mg/kg/injection, schedule: Q01DX009 (ip), vehicle: saline) 110 % of control.

Consider `COc1cc2cc3c4cc5c(cc4cc[n+]3c(C)c2cc1OC)OCO5` (tested in a mixture with another compound), for which the T/C was 122 % of control (endpoint: mean survival time, dose: 25.0 mg/kg/injection, schedule: Q04DX003 (ip), vehicle: saline); 122 % of control (endpoint: mean survival time, dose: 50.0 mg/kg/injection, schedule: Q04DX003 (ip), vehicle: saline); 92 % of control under setting [6]; 118 % of control (endpoint: mean survival time, dose: 100.0 mg/kg/injection, schedule: Q04DX003 (ip), vehicle: saline).

For the compound `O=C1Nc2ccccc2C1c1ccccc1` (stereo not drawn), the T/C reads like this: under setting [10], 97 % of control; under setting [11], 90 % of control.

Regarding `C=CCOC(c1ccc2c(c1)OCO2)C(C)Br` (stereo not drawn), the T/C reads like this: under setting [1], 94 % of control; under setting [3], 94 % of control; under setting [2], 94 % of control.

In the case of `COC(=O)C1(C)CCCC2(C)C3CC(O)C(C(C)C)=CC3(O)CCC12` (stereo not drawn), the T/C under setting [7] was 100 % of control, the T/C under setting [8] was 96 % of control and the T/C under setting [9] is 86 % of control.

As to `[NH-]NC(=S)[S-].[NH-]NC(=S)[S-].[Ni]`, the T/C reads like this: under setting [6], 98 % of control; under setting [12], 102 % of control; under setting [13], 107 % of control.

Regarding `C=CCCCCCCCCC(=O)NCc1nc2ccccc2[nH]1`, the T/C was 91 % of control under setting [7], 96 % of control under setting [8] and 96 % of control under setting [9].

`O=[N+]([O-])c1ccc(-n2[nH]nnc2=S)cc1`: the T/C reads like this: (endpoint: mean survival time, dose: 12.5 mg/kg/injection, schedule: Q01DX009 (ip), vehicle: saline with Tween-80) 95 % of control; under setting [4], 93 % of control; under setting [5], 102 % of control; (endpoint: mean survival time, dose: 100.0 mg/kg/injection, schedule: Q01DX009 (ip), vehicle: acetone) 95 % of control; under setting [7], 96 % of control; (endpoint: mean survival time, dose: 200.0 mg/kg/injection, schedule: Q01DX009 (ip), vehicle: acetone) 94 % of control. Besides, the T/C is 96 % of control under setting [8] and 93 % of control under setting [9].
